According to patent US4298610A, “Ester derivatives of quinolopyran-4-one-2-carboxylic acids and antiallergic antasthmatics” (priority 1978, dated 1981):

These compounds were tested on passive cutaneous anaphylaxis (assay: passive cutaneous anaphylaxis test (P.C.A.) on rats, oral administration). Settings: 0.5 h, rat, 30 mg/kg, antigen 30 minutes after administration, read-out: Percent inhibition (%).
Assay type: in vivo, rat (SLC Wister)
Protocol: Various 5-hydroxy-quinolopyran-4-one-2-carboxylic acid esters in terms of the R group represented by the general formula [I] were prepared. […] In order to estimate the efficacy of each compound as an anti-allergic antasthmatic, the efficacy was evaluated according to a passive cutaneous anaphylaxis test (P.C.A.) on rats.
To SLC Wister rats were administered intracutaneously egg white albumin recrystallized 5 times and Bodetallapertussis Vaccine, and serum was collected after 13 days from the rats. […] A physiological salt solution in which egg white albumin and a dye (Evans' blue) were dissolved was administered intravenously, 30 minutes after the oral administration, to the rats; and 30 minutes thereafter the back skins of the rats were peeled off. The dye that transuded from the peeled skin was extracted with Na2 SO4 and acetone, and the quantities of the dye were measured by colorimetry at 620 m μ.

| SMILES | inhibition in vivo at 30 mg/kg [%] |
| --- | --- |
| Cc1ccc2c(nc(O)c3c(=O)cc(C(=O)OC4CCCCC4)oc32)c1C [1-cyclohexyl ester of 7,8-dimethyl-5-hydroxy-quinolo[4,3-b]pyran-4-one-2-carboxylic acid, reference compound] | 33.7 |
| Cc1ccc2c(nc(O)c3c(=O)cc(C(=O)OCC(C)(C)C)oc32)c1C [2,2-dimethyl-1-propyl ester of 7,8-dimethyl-5-hydroxy-quinolo[4,3-b]pyran-4-one-2-carboxylic acid] | 93.2 |
| Cc1ccc2nc(O)c3c(=O)cc(C(=O)OCC(C)(C)C)oc3c2c1 [2,2-dimethyl-1-propyl ester of 9-methyl-5-hydroxy-quinolo[4,3-b]pyran-4-one-2-carboxylic acid] | 58.4 |
| CCC(CC)COC(=O)c1cc(=O)c2c(O)nc3c(C)c(C)ccc3c2o1 [2-ethyl-1-butyl ester of 7,8-dimethyl-5-hydroxy-quinolo[4,3-b]pyran-4-one-2-carboxylic acid, reference compound] | 49.1 |
| CCCCC(C)OC(=O)c1cc(=O)c2c(O)nc3c(C)c(C)ccc3c2o1 (stereo not shown) [2-hexyl ester of 7,8-dimethyl-5-hydroxy-quinolo[4,3-b]pyran-4-one-2-carboxylic acid] | 94.7 |
| CCC(C)COC(=O)c1cc(=O)c2c(O)nc3c(C)c(C)ccc3c2o1 (stereo not shown) [2-methyl-1-butyl ester of 7,8-dimethyl-5-hydroxy-quinolo[4,3-b]pyran-4-one-2-carboxylic acid] | 99.8 |
| CCC(C)COC(=O)c1cc(=O)c2c(O)nc3ccc(C)cc3c2o1 (stereo not shown) [2-methyl-1-butyl ester of 9-methyl-5-hydroxy-quinolo[4,3-b]pyran-4-one-2-carboxylic acid] | 83 |
| CCCC(C)COC(=O)c1cc(=O)c2c(O)nc3ccc(C)cc3c2o1 (stereo not shown) [2-methyl-1-pentyl ester of 9-methyl-5-hydroxy-quinolo[4,3-b]pyran-4-one-2-carboxylic acid] | 83.8 |
| Cc1ccc2c(nc(O)c3c(=O)cc(C(=O)OCC(C)C)oc32)c1C [2-methyl-1-propyl ester of 7,8-dimethyl-5-hydroxy-quinolo[4,3-b]pyran-4-one-2-carboxylic acid, reference compound] | 2.5 |
| CCC(OC(=O)c1cc(=O)c2c(O)nc3c(C)c(C)ccc3c2o1)C(C)C (stereo not shown) [2-methyl-3-pentyl ester of 7,8-dimethyl-5-hydroxy-quinolo[4,3-b]pyran-4-one-2-carboxylic acid, reference compound] | 32.1 |
| CCCC(C)OC(=O)c1cc(=O)c2c(O)nc3c(C)c(C)ccc3c2o1 (stereo not shown) [2-pentyl ester of 7,8-dimethyl-5-hydroxy-quinolo[4,3-b]pyran-4-one-2-carboxylic acid] | 95.1 |
| CCCC(C)OC(=O)c1cc(=O)c2c(O)nc3ccc(C)cc3c2o1 (stereo not shown) [2-pentyl ester of 9-methyl-5-hydroxy-quinolo[4,3-b]pyran-4-one-2-carboxylic acid] | 70 |
| Cc1ccc2c(nc(O)c3c(=O)cc(C(=O)OCCC(C)(C)C)oc32)c1C [3,3-dimethyl-1-butyl ester of 7,8-dimethyl-5-hydroxy-quinolo[4,3-b]pyran-4-one-2-carboxylic acid, reference compound] | 26.5 |
| Cc1ccc2c(nc(O)c3c(=O)cc(C(=O)OC(C)C(C)(C)C)oc32)c1C (stereo not shown) [3,3-dimethyl-2-butyl ester of 7,8-dimethyl-5-hydroxy-quinolo[4,3-b]pyran-4-one-2-carboxylic acid, reference compound] | 42.7 |
| CCCC(CC)OC(=O)c1cc(=O)c2c(O)nc3c(C)c(C)ccc3c2o1 (stereo not shown) [3-hexyl ester of 7,8-dimethyl-5-hydroxy-quinolo[4,3-b]pyran-4-one-2-carboxylic acid] | 96.1 |
| CCCC(CC)OC(=O)c1cc(=O)c2c(O)nc3ccc(C)cc3c2o1 (stereo not shown) [3-hexyl ester of 9-methyl-5-hydroxy-quinolo[4,3-b]pyran-4-one-2-carboxylic acid] | 81.8 |

| SMILES | inhibition in vivo at 30 mg/kg [%] |
| --- | --- |
| Cc1ccc2c(nc(O)c3c(=O)cc(C(=O)OCCC(C)C)oc32)c1C [3-methyl-1-butyl ester of 7,8-dimethyl-5-hydroxy-quinolo[4,3-b]pyran-4-one-2-carboxylic acid] | 95.5 |
| COc1cc2nc(O)c3c(=O)cc(C(=O)OCCC(C)C)oc3c2cc1OC [3-methyl-1-butyl ester of 8,9-dimethoxy-5-hydroxy-quinolo[4,3-b]pyran-4-one-2-carboxylic acid] | 67.3 |
| CC(C)CCOC(=O)c1cc(=O)c2c(O)nc3ccc(Cl)cc3c2o1 [3-methyl-1-butyl ester of 9-chloro-5-hydroxy-quinolo[4,3-b]pyran-4-one-2-carboxylic acid] | 59.5 |
| CCOC(=O)c1ccc2nc(O)c3c(=O)cc(C(=O)OCCC(C)C)oc3c2c1 [3-methyl-1-butyl ester of 9-ethoxycarbonyl-5-hydroxy-quinolo[4,3-b]pyran-4-one-2-carboxylic acid] | 52.7 |
| Cc1ccc2nc(O)c3c(=O)cc(C(=O)OCCC(C)C)oc3c2c1 [3-methyl-1-butyl ester of 9-methyl-5-hydroxy-quinolo[4,3-b]pyran-4-one-2-carboxylic acid] | 87.2 |
| CCCCc1ccc2nc(O)c3c(=O)cc(C(=O)OCCC(C)C)oc3c2c1 [3-methyl-1-butyl ester of 9-n-butyl-5-hydroxy-quinolo[4,3-b]pyran-4-one-2-carboxylic acid] | 64.5 |
| CCC(C)CCOC(=O)c1cc(=O)c2c(O)nc3c(C)c(C)ccc3c2o1 (stereo not shown) [3-methyl-1-pentyl ester of 7,8-dimethyl-5-hydroxy-quinolo[4,3-b]pyran-4-one-2-carboxylic acid] | 80.8 |
| Cc1ccc2c(nc(O)c3c(=O)cc(C(=O)OC(C)C(C)C)oc32)c1C (stereo not shown) [3-methyl-2-butyl ester of 7,8-dimethyl-5-hydroxy-quinolo[4,3-b]pyran-4-one-2-carboxylic acid, reference compound] | 22.6 |
| CCC(C)C(C)OC(=O)c1cc(=O)c2c(O)nc3c(C)c(C)ccc3c2o1 (stereo not shown) [3-methyl-2-pentyl ester of 7,8-dimethyl-5-hydroxy-quinolo[4,3-b]pyran-4-one-2-carboxylic acid] | 68.3 |
| CCC(CC)OC(=O)c1cc(=O)c2c(O)nc3c(C)c(C)ccc3c2o1 [3-pentyl ester of 7,8-dimethyl-5-hydroxy-quinolo[4,3-b]pyran-4-one-2-carboxylic acid] | 65.3 |
| Cc1ccc2c(nc(O)c3c(=O)cc(C(=O)OCCCc4ccccc4)oc32)c1C [3-phenyl-1-propyl ester of 7,8-dimethyl-5-hydroxy-quinolo[4,3-b]pyran-4-one-2-carboxylic acid, reference compound] | -7.2 |
| Cc1ccc2c(nc(O)c3c(=O)cc(C(=O)OCCCC(C)C)oc32)c1C [4-methyl-1-pentyl ester of 7,8-dimethyl-5-hydroxy-quinolo[4,3-b]pyran-4-one-2-carboxylic acid] | 78.5 |
| Cc1ccc2c(nc(O)c3c(=O)cc(C(=O)OC(C)CC(C)C)oc32)c1C (stereo not shown) [4-methyl-2-pentyl ester of 7,8-dimethyl-5-hydroxy-quinolo[4,3-b]pyran-4-one-2-carboxylic acid] | 67.6 |
| Cc1ccc2c(nc(O)c3c(=O)cc(C(=O)OC(C)C)oc32)c1C [isopropyl ester of 7,8-dimethyl-5-hydroxy-quinolo[4,3-b]pyran-4-one-2-carboxylic acid, reference compound] | 7.3 |
| CCCCOC(=O)c1cc(=O)c2c(O)nc3c(C)c(C)ccc3c2o1 [n-butyl ester of 7,8-dimethyl-5-hydroxy-quinolo[4,3-b]pyran-4-one-2-carboxylic acid, reference compound] | 48.8 |

Same assay, conditions: 0.5 h, rat, 100 mg/kg, antigen 30 minutes after administration, read-out: Percent inhibition (%)

| SMILES | inhibition in vivo at 100 mg/kg [%] |
| --- | --- |
| Cc1ccc2c(nc(O)c3c(=O)cc(C(=O)OCC(O)CO)oc32)c1C (stereo not shown) [2,3-dihydroxy-propyl ester of 7,8-dimethyl-5-hydroxy-quinolo[4,3-b]pyran-4-one-2-carboxylic acid, reference compound] | 8.6 |
| Cc1ccc2c(nc(O)c3c(=O)cc(C(=O)OCCO)oc32)c1C [2-hydroxy-ethyl ester of 7,8-dimethyl-5-hydroxy-quinolo[4,3-b]pyran-4-one-2-carboxylic acid, reference compound] | 21.4 |
| Cc1ccc2c(nc(O)c3c(=O)cc(C(=O)O)oc32)c1C [7,8-dimethyl-5-hydroxy-quinolo[4,3-b]pyran-4-one-2-carboxylic acid, reference compound] | 5.5 |
| Cc1ccc2c(nc(O)c3c(=O)cc(C(=O)OCc4ccccc4)oc32)c1C [benzyl ester of 7,8-dimethyl-5-hydroxy-quinolo[4,3-b]pyran-4-one-2-carboxylic acid, reference compound] | 13.2 |
| CCOC(=O)c1cc(=O)c2c(O)nc3c(C)c(C)ccc3c2o1 [ethyl ester of 7,8-dimethyl-5-hydroxy-quinolo[4,3-b]pyran-4-one-2-carboxylic acid, reference compound] | 36.1 |
| COC(=O)c1cc(=O)c2c(O)nc3c(C)c(C)ccc3c2o1 [methyl ester of 7,8-dimethyl-5-hydroxy-quinolo[4,3-b]pyran-4-one-2-carboxylic acid, reference compound] | 39.4 |
